Data set [1] deals with T cells isolated from patients with CLL. Briefly: T cell apoptosis by Annexin V/PI staining. The format is cell-based, human. Particulars: 200 nM, 24 hours; n = 3. The procedure: Cell viability and apoptosis were evaluated by double-staining with the mitochondrial inner transmembrane potential (ΔΨm)-sensitive dye DiOC6(3) (3,3'-dihexyloxacarbocyanine iodide; Sigma-Aldrich) and the exclusion dye propidium iodide (PI; Immunostep), allowing identification of apoptotic [DiOC6(3)^low PI^-] and dead [PI^+] cells as per Proc. Natl. Acad. Sci. U.S.A. (2014) 111(8):3020-3025 and Methods Mol. Biol. (2016) 1419:1-16. Briefly, PBMCs were resuspended in culture medium containing 20 nM DiOC6(3) and incubated for 30 minutes at 37 °C. Then, PI (1 µg/mL) was added and cells were further incubated for 10 minutes at room temperature (RT). Cells were analyzed by flow cytometry considering DiOC6(3)^+PI^- cells as viable. In some experiments, apoptosis was evaluated by staining with Annexin V/PI. […]
The induction of caspase-dependent apoptosis on primary CLL cells by EC-7072 was assessed by: • (i) incubating PBMCs isolated from patients with CLL (n = 6) following treatment with increasing concentrations of EC-7072 (0 - 400 nM) for 24 hours. Apoptosis of leukemia cells was evaluated by cytofluorometric assessment of Annexin V/PI staining to obtain percentages of apoptotic [Annexin V^+ PI^-] and dead [PI^+] cells (Figure 3A); • (ii) incubating PBMCs and T cells isolated from patients with CLL (n = 3) following treatment with EC-7072 (200 nM) for 24 hours. […]

For data set [2], the system named is isolated T cells from patients with CLL. Briefly: qPCR analysis of BCL2 expression in isolated T cells. The format is cell-based, human. Particulars: 200 nM, 6 hours; n = 3. The procedure: Isolated leukemia cells from patients with CLL were incubated with EC-7072 (200 nM) or DMSO for 6 hours. Total RNA was extracted using RNeasy Mini Kit (Qiagen). 2 µg total RNA were used for cDNA synthesis using High-Capacity cDNA Reverse Transcription Kit (Applied Biosystems). Quantitative RT-PCR was performed using SYBR Green PCR Master Mix (Applied Biosystems) in a 7300 Real-Time PCR System and each sample was analyzed in triplicate. Table 1. Primers used in qPCR
The dysregulation of BCL2 expression in primary CLL by EC-7072 was evaluated by: • (i) incubating isolated CLL cells (n = 6) from patients with CLL following treatment with EC-7072 (200 nM) for 6 hours and extracting total RNA. Relative expression of BLC2 was determined by qPCR to obtain the mean relative expression to the control (DMSO) condition (Figure 6F); • (ii) incubating isolated CLL cells (n = 6) following treatment with 200 nM EC-7072 for 12 and 18 hours. BCL2 levels were evaluated by intracellular flow cytometry (Figure 6G); • (iii) incubating isolated T cells (n = 3) from patients with CLL following treatment with EC-7072 (200 nM) for 6 hours and extracting total RNA. […] T-cell death and apoptosis were assessed by DiOC6(3)/PI staining to obtain percentages of viable [DiOC6(3)^+] cells and the mean percentages of apoptotic [DiOC6(3)^low PI^-] and dead [PI^+] cells.
For orientation: Real-time PCR tracks product formation cycle by cycle.

`CO[C@@H]([C@@H]1Cc2cc3cc(O[C@H]4C[C@@H](O[C@H]5C[C@@H](O)[C@H](O)[C@@H](C)O5)[C@H](O)[C@@H](C)O4)c(C)c(O)c3c(O)c2C(=O)[C@H]1O[C@H]1C[C@@H](O[C@H]2C[C@@H](O[C@H]3C[C@](C)(O)[C@H](O)[C@@H](C)O3)[C@@H](O)[C@@H](C)O2)[C@H](O)[C@@H](C)O1)[C@@H](O)C(C)=O` [EC-7072, mithramycin SK]: the “T cell apoptosis (Annexin V/PI)” value in data set [1] is on record as “no significant apoptosis”. Besides, the “BCL2 expression in T cells” value in data set [2] was “not modulated”.

These data come from patent publication EP3797781A1, “USE OF EC-7072 AND SYNERGIC COMPOSITIONS THEREOF IN TREATMENT OF CHRONIC LYMPHOCYTIC LEUKEMIA” (priority 2019, dated 2021).
